This passage reports IC50 results from patent US10428080B2, “TBK/IKK inhibitor compounds and uses thereof” (Merck Patent GmbH, priority 2015, dated 2019).

In one assay the target is T1, TBK1 (Homo sapiens, UniProt Q9UHD2).
T1 sequence (Q9UHD2 1-729): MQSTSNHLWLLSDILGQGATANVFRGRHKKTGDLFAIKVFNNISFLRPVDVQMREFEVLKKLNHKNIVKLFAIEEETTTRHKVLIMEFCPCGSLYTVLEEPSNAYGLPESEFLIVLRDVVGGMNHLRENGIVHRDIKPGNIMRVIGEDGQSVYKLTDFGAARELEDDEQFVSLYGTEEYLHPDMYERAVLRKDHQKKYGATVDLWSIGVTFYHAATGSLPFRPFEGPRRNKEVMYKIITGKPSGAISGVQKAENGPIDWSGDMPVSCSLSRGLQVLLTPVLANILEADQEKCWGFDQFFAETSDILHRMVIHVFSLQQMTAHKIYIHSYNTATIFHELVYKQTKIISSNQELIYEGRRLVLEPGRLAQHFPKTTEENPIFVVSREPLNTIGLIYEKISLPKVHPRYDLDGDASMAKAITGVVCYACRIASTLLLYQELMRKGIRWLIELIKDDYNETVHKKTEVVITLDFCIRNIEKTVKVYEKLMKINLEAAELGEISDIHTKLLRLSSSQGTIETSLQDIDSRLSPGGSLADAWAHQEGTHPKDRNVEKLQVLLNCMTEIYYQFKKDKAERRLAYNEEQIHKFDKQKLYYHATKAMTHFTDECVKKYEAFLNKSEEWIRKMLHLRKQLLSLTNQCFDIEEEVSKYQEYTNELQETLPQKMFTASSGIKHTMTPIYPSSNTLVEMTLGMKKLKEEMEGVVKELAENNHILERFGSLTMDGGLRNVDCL
Nature of the assay: TBK Biochemical Assay. The note with it: read-out: TBK1 IC50. The gist of the method:
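Caliper LabChip mobility-shift readout of substrate and product after 90 min of TBK1 reaction at 25° C and stop-buffer addition. Compounds tested in 1:4 serial dilution over 10 points from 30 uM final at 1% DMSO; staurosporine 10 uM final defines full inhibition.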

In another assay the target is T2, IKKε (Homo sapiens, UniProt Q14164).
T2 sequence (Q14164 1-716): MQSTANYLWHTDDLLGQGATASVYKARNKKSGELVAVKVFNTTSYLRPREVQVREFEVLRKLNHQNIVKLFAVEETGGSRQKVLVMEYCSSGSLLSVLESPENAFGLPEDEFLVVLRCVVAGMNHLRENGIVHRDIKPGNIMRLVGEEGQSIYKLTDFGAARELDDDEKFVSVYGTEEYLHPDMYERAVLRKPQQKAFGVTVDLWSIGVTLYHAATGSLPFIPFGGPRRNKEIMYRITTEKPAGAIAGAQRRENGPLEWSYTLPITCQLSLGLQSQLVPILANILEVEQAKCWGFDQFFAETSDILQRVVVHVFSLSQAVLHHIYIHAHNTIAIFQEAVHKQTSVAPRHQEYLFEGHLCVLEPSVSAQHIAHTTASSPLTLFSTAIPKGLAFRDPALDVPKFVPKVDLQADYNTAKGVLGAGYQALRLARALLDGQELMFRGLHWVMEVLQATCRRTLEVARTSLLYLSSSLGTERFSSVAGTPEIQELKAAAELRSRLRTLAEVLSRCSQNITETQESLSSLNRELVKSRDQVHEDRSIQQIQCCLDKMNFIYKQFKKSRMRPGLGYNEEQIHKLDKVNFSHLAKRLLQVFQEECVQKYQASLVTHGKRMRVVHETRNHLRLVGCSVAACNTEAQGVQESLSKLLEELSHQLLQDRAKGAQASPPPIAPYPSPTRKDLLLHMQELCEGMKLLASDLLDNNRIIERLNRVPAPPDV
The experiment in a line: IKKe Biochemical Assay. The note with it: read-out: IKKε IC50. The gist of the method:
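Activity was measured as mobility-shift separation of phosphorylated from unphosphorylated substrate on a LabChip EZ Reader. Compound was titrated from 30 uM final in 10 points, 1:4 steps, with 1% DMSO, and enzyme plus substrate reacted 90 min at 25° C before stop buffer. Control wells held 10 uM staurosporine.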

Assay [1] deals with phosphorylation of the IRF-3 protein in MDA-MB-468 cells. The experiment in a line: pIRF3 immunocytochemistry cell based assay. The note with it: Homo sapiens; MDA-MB-468 cells, Poly(I:C) stimulation; read-out: pIRF3 IC50. The method, boiled down:
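After 2 h stimulation with Poly(I:C) (10 ug/ml), following 1 h compound pre-treatment (10-point, 3-fold dilution, top 10 uM), MDA-MB-468 cells were fixed and stained with anti-pIRF3 antibody. pIRF3 fluorescence was normalized to PI staining or cell count on an Acumen cytometer. IC50 curves were derived from this.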

Counter-ions that a name gives are not always drawn.

One may read the IC50 as the concentration that inhibits the measured activity by half.

`COc1cc(C(=O)N2CCCC2)ccc1-c1cc2nccc(-c3ccc(OC4CCOCC4)c(C#N)c3)c2o1` [Compound 37, 5-{2-[2-Methoxy-4-(pyrrolidine-1-carbonyl)-phenyl]-furo[3,2-b]pyridin-7-yl}-2-(tetrahydro-pyran-4-yloxy)-benzonitrile]: the IC50 is under 100 nM on TBK1, under 100 nM at IKKε and 100 to 1000 nM in assay [1].

In the case of `COc1cc(C(=O)N2CC(CO)C2)ccc1-c1cc2nccc(-c3ccc(OC4CCOCC4)c(C#N)c3)c2o1` [Compound 38, 5-{2-[4-(3-Hydroxymethyl-azetidine-1-carbonyl)-2-methoxy-phenyl]-furo[3,2-b]pyridin-7-yl}-2-(tetrahydro-pyran-4-yloxy)-benzonitrile], the figures for the concentration for half-maximal inhibition (IC50) (on TBK1; on IKKε; in assay [1]) were under 100 nM, under 100 nM and 100 to 1000 nM, respectively.

As for `COc1cc(C(=O)N2CC(O)C2)ccc1-c1cc2nccc(-c3ccc(OC4CCOCC4)c(C#N)c3)c2o1` [Compound 39, 5-{2-[4-(3-Hydroxy-azetidine-1-carbonyl)-2-methoxy-phenyl]-furo[3,2-b]pyridin-7-yl}-2-(tetrahydro-pyran-4-yloxy)-benzonitrile], the half-inhibitory concentration (IC50) was under 100 nM on TBK1, under 100 nM on IKKε and 100 to 1000 nM in assay [1].

As for `COc1cc(C(N)=O)ccc1-c1cc2nccc(-c3ccc(OC4CCOCC4)c(C#N)c3)c2o1` [Compound 40, 4-{7-[3-Cyano-4-(tetrahydro-pyran-4-yloxy)-phenyl]-furo[3,2-b]pyridin-2-yl}-3-methoxy-benzamide], the half-inhibitory concentration (IC50) on TBK1 was under 100 nM; at IKKε, under 100 nM; in assay [1], 100 to 1000 nM.

In the case of `COc1cc(C(=O)N2CC[C@@H](O)C2)ccc1-c1cc2nccc(-c3ccc(OC4CCOCC4)c(C#N)c3)c2o1` [Compound 43, 5-{2-[4-((R)-3-Hydroxy-pyrrolidine-1-carbonyl)-2-methoxy-phenyl]-furo[3,2-b]pyridin-7-yl}-2-(tetrahydro-pyran-4-yloxy)-benzonitrile], the IC50 is under 100 nM at TBK1, under 100 nM at IKKε and 100 to 1000 nM in assay [1].

For the molecule `COc1cc(C(=O)N2CCC(F)(F)C2)ccc1-c1cc2nccc(-c3ccc(OC4CCOCC4)c(C#N)c3)c2o1` [Compound 45, 5-{2-[4-(3,3-Difluoro-pyrrolidine-1-carbonyl)-2-methoxy-phenyl]-furo[3,2-b]pyridin-7-yl}-2-(tetrahydro-pyran-4-yloxy)-benzonitrile], the IC50 on TBK1 is under 100 nM; at IKKε, under 100 nM; in assay [1], 100 to 1000 nM.

Regarding `COc1cc(C(=O)N2CC3CCC(C2)O3)ccc1-c1cc2nccc(-c3ccc(NC4CCOCC4)c(C#N)c3)c2o1` [Compound 46, 5-{2-[2-Methoxy-4-(8-oxa-3-aza-bicyclo[3.2.1]octane-3-carbonyl)-phenyl]-furo[3,2-b]pyridin-7-yl}-2-(tetrahydro-pyran-4-ylamino)-benzonitrile], the IC50 on TBK1 was under 100 nM; on IKKε it was under 100 nM; in assay [1] it was 100 to 1000 nM.

As to `COc1cc(C(=O)N2CC[C@H](N(C)C)C2)ccc1-c1cc2nccc(-c3ccc(N4CC[C@H](F)C4)c(C#N)c3)c2o1` [Compound 47, 5-{2-[4-((S)-3-Dimethylamino-pyrrolidine-1-carbonyl)-2-methoxy-phenyl]-furo[3,2-b]pyridin-7-yl}-2-((S)-3-fluoro-pyrrolidin-1-yl)-benzonitrile], the IC50 was under 100 nM at TBK1, under 100 nM on IKKε and 100 to 1000 nM in assay [1].

`COc1cc(C(=O)NC[C@@H](O)CO)ccc1-c1cc2nccc(-c3ccc(OC4CCOCC4)c(C#N)c3)c2o1` [Compound 49, 4-{7-[3-Cyano-4-(tetrahydro-pyran-4-yloxy)-phenyl]-furo[3,2-b]pyridin-2-yl}-N—((R)-2,3-dihydroxy-propyl)-3-methoxy-benzamide]: the half-maximal inhibitory concentration (IC50) was under 100 nM at TBK1, under 100 nM on IKKε and 100 to 1000 nM in assay [1].

Take `COc1cc(-c2n[nH]c(=O)o2)ccc1-c1cc2nccc(-c3ccc(OC4CCOCC4)c(C#N)c3)c2o1` [Compound 50, 5-{2-[2-Methoxy-4-(5-oxo-4,5-dihydro-[1,3,4]oxadiazol-2-yl)-phenyl]-furo[3,2-b]pyridin-7-yl}-2-(tetrahydro-pyran-4-yloxy)-benzonitrile]: the half-inhibitory concentration (IC50) at TBK1 is under 100 nM; on IKKε it was under 100 nM; in assay [1] it was 100 to 1000 nM.

In the case of `COc1cc(C(=O)NC2(CO)COC2)ccc1-c1cc2nccc(-c3ccc(OC4CCOCC4)c(C#N)c3)c2o1` [Compound 51, 4-{7-[3-Cyano-4-(tetrahydro-pyran-4-yloxy)-phenyl]-furo[3,2-b]pyridin-2-yl}-N-(3-hydroxymethyl-oxetan-3-yl)-3-methoxy-benzamide], the figures for the IC50 (on TBK1; on IKKε; in assay [1]) were under 100 nM, under 100 nM and 100 to 1000 nM, respectively.

`COc1cc(C(=O)N2CCC3(CCNC3=O)CC2)ccc1-c1cc2nccc(-c3ccc(NC4CCOCC4)c(C#N)c3)c2o1` [Compound 52, 5-{2-[2-Methoxy-4-(1-oxo-2,8-diaza-spiro[4.5]decane-8-carbonyl)-phenyl]-furo[3,2-b]pyridin-7-yl}-2-(tetrahydro-pyran-4-ylamino)-benzonitrile]: the concentration for half-maximal inhibition (IC50) at TBK1 was under 100 nM; at IKKε, under 100 nM; in assay [1], 100 to 1000 nM.

With `COc1cc(C(=O)N(C)OC)ccc1-c1cc2nccc(-c3ccc(OC4CCOCC4)c(C#N)c3)c2o1` [Compound 53, 4-{7-[3-Cyano-4-(tetrahydro-pyran-4-yloxy)-phenyl]-furo[3,2-b]pyridin-2-yl}-3,N-dimethoxy-N-methyl-benzamide], the results for the half-inhibitory concentration (IC50) (on TBK1; at IKKε; in assay [1]) were under 100 nM, under 100 nM and 100 to 1000 nM, respectively.

Take `COc1cc(C(=O)N[C@@H]2CCC[C@@H](O)[C@H]2O)ccc1-c1cc2nccc(-c3ccc(OC4CCOCC4)c(C#N)c3)c2o1` [Compound 54, 4-{7-[3-Cyano-4-(tetrahydro-pyran-4-yloxy)-phenyl]-furo[3,2-b]pyridin-2-yl}-N-((1R,2S,3R)-2,3-dihydroxy-cyclohexyl)-3-methoxy-benzamide]: the IC50 at TBK1 is under 100 nM; at IKKε, under 100 nM; in assay [1], 100 to 1000 nM.

Regarding `COc1cc(C(=O)N2CC3NCCC32)ccc1-c1cc2nccc(-c3ccc(OC4CCOCC4)c(C#N)c3)c2o1` (stereo not drawn) [Compound 55, 5-{2-[4-(2,6-Diaza-bicyclo[3.2.0]heptane-6-carbonyl)-2-methoxy-phenyl]-furo[3,2-b]pyridin-7-yl}-2-(tetrahydro-pyran-4-yloxy)-benzonitrile hydrochloride], the concentration for half-maximal inhibition (IC50) (on TBK1; at IKKε; in assay [1]) was under 100 nM throughout.

For the molecule `COc1cc(C(=O)N(C)C)ccc1-c1cc2nccc(-c3ccc(N4CC[C@@H](F)C4)c(C#N)c3)c2o1` [Compound 57, 4-{7-[3-Cyano-4-((R)-3-fluoro-pyrrolidin-1-yl)-phenyl]-furo[3,2-b]pyridin-2-yl}-3-methoxy-N,N-dimethyl-benzamide], the concentration for half-maximal inhibition (IC50) at TBK1 was under 100 nM; at IKKε, under 100 nM; in assay [1] it was 100 to 1000 nM.
